Test results: patent US5580860A, “Pharmaceutical composition containing 2-amino-6-chloropurine-9-β-D-2',3'-dideoxyribofuranoxside” (priority 1989, dated 1996)
Blank lines part the entries; values can stand above or below the molecule they belong to.

Tests used:
cells [1] = details: read-out: concentration range from which cytotoxicity appears; J. Biol. Chem., 263, 5870 (1988); cited from earlier work
HIV [2] = details: J. Biol. Chem., 263, 5870 (1988); cited from earlier work
[3] = tested on: production of reverse transcriptase (HIV); details: J. Med. Chem., 32, 1135 (1989), cited from earlier work
cells [4] = details: J. Med. Chem., 32, 1135 (1989), cited from earlier work
[5] = tested on: p24 gag protein of HIV (H9 cells); test: Antivirus test (2), expression of p24 gag protein in HIV-infected H9 cells; format: cell-based
Protocol: Namely, HIV-infected H9 cells added with anti-HIV agent in various concentrations were cultured for 8 days and 9 days, respectively, to assay the rate (%) of the target H9 cells expressing p24 gag protein of HIV. Measurement was made by a murine monoclonal antibody (M26) method.

[6] = tested on: AIDS virus (HIV) in ATH8 cells; test: Antivirus test (1), anti-HIV effect in ATH8 cells; format: cell-based; details: for IC100: read-out: complete inhibition concentration for HIV
Protocol: (§1) Namely, after pretreatment beforehand with polybrene (made by Sigma Co.), 2×10^5 ATH 8 cells were exposed to AIDS virus (HIV) for 45 minutes to infect (the number of HIV was made so as to be 2000 per ATH8 cell). Successively, the infected cells were suspended into every 1 ml of respective media containing interleukin 2 (IL-2) and being added with anti-HIV agent in various concentrations and into 1 ml of medium containing IL-2 alone and not containing anti-HIV agent at any rate.
(§2) These were cultured at 37° C. in a mixed gas comprising 5% carbon dioxide and 95% air.
(§3) The cells for reference were similarly prepared except allowing to infect with AIDS virus (HIV).
(§4) After 5 days, whole number of cells was counted by hemocytometer method based on the dyeing with trypan blue.

ATH8 cells = test: Cytotoxicity in the anti-HIV test (ATH8 cells); format: cell-based; details: in words
Protocol: as §1, §2, §3, §4

[7] = Cytotoxicity in the anti-HIV test (ATH8 cells); format: cell-based; details: human, ath8 cells; DMSO present (1% at 200 μM); attributed to influence of DMSO; read-out: concentration at which cytotoxicity appears
Protocol: as §1, §2, §3, §4

HIV [8] = details: compared with AZT; cited from earlier work
[9] = Lipophilicity test, partition coefficient by shake-flask method; format: physicochemical; details: n-octanol / phosphate buffer pH 7.4, shake-flask, HPLC
Protocol: As a method for determining the extent of lipophilicity, it is a general rule to measure the partition coefficient (P) in water-n-octanol. Thus, the lipophilicity test of 2-amino-6-chloropurine-9-β-2',3'-dideoxyribofuranoside concerned with the invention was performed by the method of using partition coefficient P by shake-flask method (J. Pharm. Pharmacol., 39, 253 (1987)).
Namely, n-octanol and phosphate buffer (pH 7.4) were transferred into a separatory funnel and shaken for 3 hours with a shaker, which was then allowed to stand for 12 hours to separate respectively. Into 50 ml of n-octanol-saturated buffer thus obtained was dissolved 1 mg of sample (dried for 12 hours at 50° C. in a vacuum dryer) and 0.5 ml of this solution were taken as a sample for quantitative determination. Remaining 49.5 ml of n-octanol-saturated buffer and 49.5 ml of buffer-saturated n-octanol were transferred into a separatory funnel.
After shaking for 3 hours with a shaker, this was allowed to stand for 2 hours and then centrifuged (1500 rpm, 15 minutes). After gently removing the n-octanol layer, the sample for quantitative determination was taken.
The partition coefficient P is defined as follows:
Co: Concentration of sample in buffer before shaking
Cw: Concentration of sample in buffer after shaking

[10] = Human immunodeficiency virus 1, ATH-8, 120 h, ATH8 cells, 5 days

SMILES: Nc1nc(Br)nc2c1ncn2[C@H]1CC[C@@H](CO)O1 [2-bromo-2',3'-dideoxyadenosine]
MCC (cells [1]): 1 to 10 µM
concentration exhibiting HIV inhibition effect (HIV [2]): 1 to 10 µM

SMILES: Nc1nc(Cl)nc2c1ncn2[C@H]1C=C[C@@H](CO)O1 [2-chloro-2',3'-didehydro-2',3'-dideoxyadenosine]
inhibition of the production of reverse transcriptase at 20 μM ([3]; 20 μM): 75%
toxicity at a concentration over 20 μM (cells [4]; over 20 μM): the toxicity is so strong that the test cannot be performed

SMILES: Nc1nc(Cl)nc2c1ncn2[C@H]1CC[C@@H](CO)O1 [2-chloro-2',3'-dideoxyadenosine]
anti-HIV effect at 2 μM ([3]; 2 μM): no effect at all
inhibition of the production of reverse transcriptase at 100 μM ([3]; 100 μM): 97%
cytotoxicity at 100 μM (cells [4]; 100 μM): 23%
MCC (cells [1]): 1 to 10 µM
concentration exhibiting HIV inhibition effect (HIV [2]): 1 to 10 µM

SMILES: Nc1nc(F)nc2c1ncn2[C@H]1CC[C@@H](CO)O1 [2-fluoro-2',3'-dideoxyadenosine]
MCC (cells [1]): 1 to 10 µM
concentration exhibiting HIV inhibition effect (HIV [2]): 1 to 10 µM

SMILES: Nc1nc(Cl)c2ncn([C@H]3CC[C@@H](CO)O3)c2n1 [6-Cl-DDG, 2-amino-6-chloropurine-9-β-D-2',3'-dideoxyribofuranoside]
IC100 ([5]; Human immunodeficiency virus 1, 8th and 9th day, read-out: concentration almost completely inhibiting the expressing of p24): 10 µM
minimal effective concentration ([5]; Human immunodeficiency virus 1, 8th and 9th day, read-out: concentration exhibiting inhibition effect on the expressing of p24 antigen): 3 µM
anti-HIV effect compared with DDG ([5]; vs DDG): equal or higher anti-HIV effect compared with DDG
anti-HIV effect compared with DDG ([6]; ATH8 cells, vs DDG): equal or higher anti-HIV effect compared with DDG
IC100 [6, 10]: 5 µM
minimal effective concentration ([6]; Human immunodeficiency virus 1, ATH-8, 120 h, ATH8 cells, 5 days, read-out: concentration exhibiting HIV inhibition effect): 2 µM
anti-AIDS virus effect (anti-HIV effect) ([6]; in words): high anti-AIDS virus effect (anti-HIV effect)
cytotoxicity (ATH8 cells): low cytotoxicity
MCC at 120 h [7]: > 200 µM

SMILES: Nc1ncnc2c1ncn2[C@H]1CC[C@@H](CO)O1 [DDA, 2',3'-dideoxyadenosine]
anti-HIV effect in vitro (HIV [8]): higher anti-HIV effect in vitro than that of AZT

SMILES: Nc1ccn([C@H]2CC[C@@H](CO)O2)c(=O)n1 [DDC, 2',3'-dideoxycytidine]
anti-HIV effect in vitro (HIV [8]): higher anti-HIV effect in vitro than that of AZT

logD [9]: -1.06
SMILES: Nc1nc2c(ncn2[C@H]2CC[C@@H](CO)O2)c(=O)[nH]1 [DDG, 2'3'-dideoxyguanosine]
IC100 [6, 10]: 10 µM

SMILES: OC[C@@H]1CC[C@H](n2cnc3c(O)ncnc32)O1 [DDI, 2',3'-dideoxyinosine]
logD [9]: -1.22
anti-HIV effect in vitro (HIV [8]): higher anti-HIV effect in vitro than that of AZT
